Laboratory results from US11351185B2, “Use of isovalerylspiramycins as anti-cancer agents to inhibit metastasis” (priority 2020, dated 2022).
“Also recorded” adds a separate entry of the source.

Columns and labels:
[1] = tested on: LN229 and U251 cells; experiment: Annexin V apoptosis flow cytometry, glioblastoma cells; type: cell-based
Procedure: To assess the cytotoxicity of ISPs I, II and III, five glioblastoma cell lines, T98G, U118, A172, LN229 and U251, were treated with serial doses of each ISP, respectively, for 48 hours. Cell viability of these cell lines were evaluated by CCK8 assay, and the 50% inhibitory concentration (IC50) was calculated (FIG. 2A, B and FIG. 3). […] Cell distribution in each phase of the cell cycle was assessed in LN229 and U251 cells by flow cytometry, followed by EdU and DAPI staining.
Cells (2×10^5) were plated in 6-well plates and treated with different concentrations of ISP I. Then the cells were harvested and washed three times with PBS. Cells were resuspended in 100 μl binding buffer and were incubated with 5 μl APC-conjugated Annexin V working solution, a product of BD bioscience (Franklin Lakes, N.J. USA), and 1 μl propidium iodide (PI), a product of Invitrogen, for 15 min at room temperature with protection from light. Data acquisition and quantification were processed with BD LSRFortessa flow cytometer, using FlowJo software (Ashland, Oreg. USA).

[2] = tested on: NRF2, HMOX1, NQO1; experiment: Real time RT-PCR of NRF2 and downstream genes; type: cell-based; conditions: for NRF2 expression (RT-PCR): 24 hours
Procedure: NRF2 (NFE2L2) is a transcription factor that regulates redox homeostasis by binding to the regulatory regions of antioxidant response elements (ARE). […] Glioblastoma (LN229 and U251) cells and RCC (786-O and RCC4) cells were treated with ISP I and evaluated for NRF2 expression levels. […] Considering this finding, the inventors evaluated SELH's regulatory role on NRF2 by measuring NRF2 expression in cells that either overexpressed or had silenced SELH expression.
Total RNA was extracted using PureLink RNA Mini Kit, a product of ThermoFisher Scientific (Waltham, Mass. USA), according manufacturer's protocol. First strand cDNA was synthesized with iScript cDNA Synthesis Kit, a product of Bio-Rad (Hercules, Calif. USA). Then the inventors performed real time PCR by SsoAdvanced Universal SYBR Green Supermix kit, a product of Bio-Rad, to quantify the expression levels of genes NRF2, HMOX1, and NQO1. The primer sequences are described in Liu et al., J. Nat'l Cancer Inst. 111: 1033 (2019). Data were analyzed and normalized to 18s rRNA as the reference gene for further statistics.

[3] = tested on: γH2AX; experiment: γH2AX immunofluorescence staining and western blot (DNA damage); type: cell-based; conditions: 6 hours
Procedure: It is well-established that increased levels of ROS in cells leads to oxidative DNA damage, inducing genomic instability and inhibiting cell cycle progression. Cooke et al., FASEB J. 17: 1195 (2003). Since ISP I downregulates SELH, a key regulator of ROS response elements, the inventors first assessed whether treatment with ISP I augmented DNA damage in vitro.
(§1) Western blotting was performed to detect the protein expression level of SELH, NRF2 and γH2AX regulated by ISP I. The cells were lysed by RIPA buffer from ThermoFisher Scientific, and the concentration was measured using DC Protein Assay, a Bio-Rad product. Equal amounts of protein of each sample were loaded for gel electrophoresis and were transferred to nitrocellulose membrane, blocked and incubated overnight at 4° C. with primary antibodies. Then the membranes were washed with TBST (3 times, 10 min each). Exposure, imaging, and data analysis were done using a KwikQuant Imager system, a product of Kindle Biosciences (Greenwich, Conn. USA). The following antibodies were used: anti-phospho-histone H2A.X (Ser139), anti-NRF2 (Cell Signaling, Danvers, Mass. USA), anti-SELH (Abcam, Cambridge, Mass. USA), anti-GAPDH (Millipore, Temecula, Calif. USA).
For immunofluorescence assay, cells were seeded on a 35-mm confocal dish with glass bottom and were treated with ISP I. […] Then the cells were incubated with secondary antibody conjugated with Alexa Fluor-594 (Invitrogen), followed by staining with DAPI for nuclei. Images were obtained using Zeiss LSM 780 microscopy (Carl Zeiss, Oberkochen Germany).

[4] = tested on: SELH, Nucleolin, Fibrillarin, POL1, NPM, p53; experiment: Nucleolar stress response, immunofluorescence and western blot; type: cell-based; conditions: LN229
Procedure: (§2) SELH is localized in the nucleolus, which is a sensor of oxidative stress. Yang et al., Nature communications 7: 13599 (2016); Novoselov et al., J. Biol. Chem. 282: 11960 (2007). […] JNK2 activation by oxidative stress inactivated RNA polymerase I (POL1) transcription factor TIF1A in the nucleoli to down-regulate rRNA synthesis. Mayer et al., Genes Dev. 19: 933 (2005). To investigate whether the ribosomal biogenesis was disrupted by ISP I, pre-rRNA transcription was evaluated using real-time RT-PCR analysis in LN229 cells. […] To examine the mechanisms by which ISP I disrupts POL1 transcription, the inventors initially evaluated JNK2 activity and the overall state of the transcription machinery in ISP I-treated LN229 cells.
as §1
For immunofluorescence assay, cells were seeded on a 35-mm confocal dish with glass bottom and were treated with ISP I. After 24 hours, cells were fixed with 4% paraformaldehyde and were labeled with primary antibodies against γH2AX overnight at 4° C. Then the cells were incubated with secondary antibody conjugated with Alexa Fluor-594 (Invitrogen), followed by staining with DAPI for nuclei. Images were obtained using Zeiss LSM 780 microscopy (Carl Zeiss, Oberkochen Germany).

[5] = tested on: TIF1A-POL1 interaction; experiment: Co-immunoprecipitation of TIF1A and POL1; type: cell-based; conditions: LN229 cells; 10 μg/mL
Procedure: as §2
For co-immunoprecipitation analysis, LN229 wild-type cells, LN229 cells treated with 10 μg/mL of ISP I, and LN229 cells transfected with SELH siRNA for 24 hours were harvested, and total protein was prepared from cells using Dynabeads Co-Immunoprecipitation Kit (ThermoFisher) according to the manufacturer's protocol. Immunoblotting then was performed using anti-SELH antibody.

[6] = tested on: 786-O tumors; experiment: 786-O subcutaneous xenograft mouse model; type: in vivo, NSG mice; conditions: 35 mg/kg i.p. daily; 18 days after treatment
Procedure: For subcutaneous xenografts, NSG mice (6-8 weeks old) from the NCI-Frederick animal facility and Jackson Lab (Bar Harbor, Me. USA) were injected with 5×10^6 to 1×10^7 cells subcutaneously in the flank. One week later, the tumor-bearing mice were randomly assigned to different groups and made the tumor volume baseline equivalent and treated with normal saline or Zenomycin (35 mg/kg) everyday intraperitoneally. Tumors were measured using a caliper, and volume was calculated.

[7] = tested on: human cancer lines; conditions: MCF-7, MDA-MB-231, HepG2, A549, H460, H1299, 786-0, 769-P, U251, A172, U937, HeLa, PC3, PANC-1, TE-1, SGC-7901, HT-29, HL-60; cited from earlier work

## COC1C(O)CC(=O)OC(C)CC=CC=CC(OC2CCC(N(C)C)C(C)O2)C(C)CC(CC=O)C1OC1OC(C)C(OC2CC(C)(O)C(OC(=O)CC(C)C)C(C)O2)C(N(C)C)C1O (centres unmarked) [ISP I, 4″-isolvalerylspiramycin I]
[1]
  apoptosis (Annexin V stain): induced a dose-dependent apoptosis
[2]; 786-O and RCC4
  expression of NRF2 downstream genes HMOX1 and NQO1: increase in expression of the NRF2 downstream genes HMOX1 and NQO1; also recorded: significant increase in the downstream targets of NRF2 signaling
[2]; 786-O and RCC4, 10 μg/ml
  NRF2 expression (RT-PCR): increase in NRF2 expression; also recorded: NRF2 expression was significantly upregulated
[2]; LN229 and U251
  expression of NRF2 downstream genes HMOX1 and NQO1: increase of the expression of NRF2 downstream genes HMOX1 and NQO1; also recorded: significant increase in the downstream targets of NRF2 signaling
[2]; LN229 and U251, 10 μg/mL
  NRF2 expression (RT-PCR): increase in NRF2 expression; also recorded: NRF2 expression was significantly upregulated
[3]; 786-O and RCC4
  γH2AX expression (DNA damage marker): increase of γH2AX expression
[3]; LN229 and U251
  γH2AX expression (DNA damage marker): higher quantities of γH2A.X
[3]; LN229 and U251, listed as ISP 1
  γH2AX expression (DNA damage marker): increase of γH2AX expression
[4]
  NPM expression (western blot): decreased nucleolar protein, NPM and P53 expression in a dose dependent manner; also recorded: reduced NMP expression
[4]; 8 h, 10 μg/mL
  SELH expression in the nucleolus (immunofluorescence): loss and reduction of SELH expression in the nucleolus
  nucleolar labeling of Nucleolin, Fibrillarin, POL1, NPM (immunofluorescence): loss and dispersion of nucleolar proteins (Neucleolin, Fibrillarin, POL1, NPM)
[5]
  TIF1A-POL1 interaction (co-immunoprecipitation): interaction was disrupted by ISP I treatment
[6]
  tumor size, weight and burden: reduced 786-O tumor burden; also recorded: significantly reduced tumor size and weight
[7]
  effect on proliferation in vitro of human cancer lines: inhibitory effect
